Measured values as given in US12440529B2, “Topical Croton lechleri compositions and their use in the treatment of a bacterial colonization or primary or secondary bacterial infection of an underlying skin disorder” (ALPHYN BIOLOGICS, INC., priority 2020, dated 2025).
Values after ≈ are worked out from the molar mass of the structure shown. Where two headings read alike, the source gives them in different places. Blank lines part the entries; values can stand above or below the compound they belong to.

Legend:
[1] = tested on: S. pyogenes (Erythromycin and Tetracycline resistant strains); test: MIC/MBC assay (2-fold microdilution, CAMHB with […] laked horse blood); format: cell-based; conditions: Streptococcus pyogenes, read-out: MIC
Protocol: (§1) Tables 26 and 27 show an assay whose setup is same as what was used for screening S. aureus and P. aeruginosa (i.e. 2-fold microdilution). The 20 strains of S. pyogenes assayed were selected from the two rounds of antibiotic screening to identify Erythromycin and Tetracycline resistant strains. […] For this feasibility study, AB-101 Lot 1 and Lot 2 was used. P. aeruginosa ATCC 27853 was tested as a positive control for AB-101 activity.

[2] = tested on: MRSA strains (Mupirocin-resistant and Mupirocin-susceptible); test: In vitro MIC/MBC assay (2-fold microdilution), S. aureus strain panel; format: cell-based, Staphylococcus aureus; conditions: for MIC: Staphylococcus aureus
Protocol: (§2) AB-101 was tested against an extensive variety of bacterial strains, including Mupirocin-resistant MRSA, Mupirocin-resistant MSSA, Mupirocin-susceptible MSSA, Mupirocin-susceptible MRSA, and other skin-related pathogens.
(§3) Measures included the minimum inhibitory concentration (MIC) which is the lowest concentration of AB-101 that prevents visible growth of the bacterium or pathogen, and minimum bactericidal concentration (MBC) which is the lowest concentration of an antibacterial agent required to kill a bacterium.
(§4) AB-101 Lots 01, 02 and a purified extract of taspine for MIC are compared. […] Taspine may have additional synergistic benefits to be included in the whole extract in the final product for the effective treatment of a bacterial colonization or primary or secondary bacterial infection of an underlying skin disorder.
as §4, with “taspine for MBC are compared.” for “taspine for MIC are compared.”, “treatment of bacterial colonization” for “treatment of a bacterial colonization”
as §1

[3] = tested on: MSSA strains (Mupirocin-resistant and Mupirocin-susceptible; QC ATCC 29213); test: as above; format: cell-based, Staphylococcus aureus
Protocol: as §2, §3, §4
as §4, with “taspine for MBC are compared.” for “taspine for MIC are compared.”, “treatment of bacterial colonization” for “treatment of a bacterial colonization”
as §1

cells = conditions: Chen, Planta Med. 60 (1994), cited from earlier work
Pseudomonas aeruginosa = test: In vitro MIC/MBC assay (2-fold microdilution), multi-drug resistant strain panel; format: cell-based
Excerpt: Of the 20, 5 are known to be Verona integron-encoded metallo-beta-lactamase (VIM)—producing Pseudomonas aeruginosa which are drug resistant strains of Pseudomonas aeruginosa, another 5 are know to be Klebsiella pneumoniae carbapenemase (KPC) producing Pseudomonas aeruginosa strains which are drug resistant strains of Pseudomonas aeruginosa, and 4 are known to be IMP-Type Metallo-β-Lactamase (IMP))—producing Pseudomonas aeruginosa which are drug resistant strains of Pseudomonas aeruginosa. The 6 remaining strains are known to be antibiotic resistant and are listed simply as MDR strains. […]

[4] = Staphylococcus aureus, strain CDC 461, MupirocinS, MSSA
[5] = Staphylococcus aureus, strain CDC 461; MupirocinS, MSSA

SMILES: CC[C@H]1OC(=O)[C@H](C)[C@@H](O[C@H]2C[C@@](C)(OC)[C@@H](O)[C@H](C)O2)[C@H](C)[C@@H](O[C@@H]2O[C@H](C)C[C@H](N(C)C)[C@H]2O)[C@](C)(O)C[C@@H](C)C(=O)[C@H](C)[C@@H](O)[C@]1(C)O [Erythromycin]
MIC ([1]; S. pyogenes strain 1744264): 2 mg/L (≈ 2.73 µM)
MIC ([1]; S. pyogenes strain 1744265): > 16 mg/L
MIC ([1]; S. pyogenes strain 1744271): > 16 mg/L
MIC ([1]; S. pyogenes strain 1744272): > 16 mg/L
MIC ([1]; S. pyogenes strain 1744275): > 16 mg/L
MIC ([1]; S. pyogenes strain 1744277): 0.5 mg/L (≈ 0.681 µM)
MIC ([1]; S. pyogenes strain 1744285): > 16 mg/L
MIC ([1]; S. pyogenes strain 2065754): > 16 mg/L
MIC ([1]; S. pyogenes strain 2065755): 2 mg/L (≈ 2.73 µM)
MIC ([1]; S. pyogenes strain 2065756): 2 mg/L (≈ 2.73 µM)
MIC ([1]; S. pyogenes strain 2065757): > 16 mg/L
MIC ([1]; S. pyogenes strain 2065759): 4 mg/L (≈ 5.45 µM)
MIC ([1]; S. pyogenes strain 2065760): 2 mg/L (≈ 2.73 µM)
MIC ([1]; S. pyogenes strain 2065761): > 16 mg/L
MIC ([1]; S. pyogenes strain 2065762): 2 mg/L (≈ 2.73 µM)
MIC ([1]; S. pyogenes strain 2065763): 2 mg/L (≈ 2.73 µM)
MIC ([1]; S. pyogenes strain 2065765): > 16 mg/L
MIC ([1]; S. pyogenes strain 20658748): 2 mg/L (≈ 2.73 µM)
MIC ([1]; S. pyogenes strain 20658749): 1 mg/L (≈ 1.36 µM)
MIC ([1]; S. pyogenes strain 20658750): 1 mg/L (≈ 1.36 µM)

SMILES: COc1ccc2c(=O)oc3c(OC)cc(CCN(C)C)c4c(=O)oc1c2c34 [taspine]
healing effects (cells; Ecuadorian sap): little healing effects
activity by MBC [2]: does not have activity
activity by MIC ([2]; highest taspine concentration tested 10 μg/mL (50% relative to AB-101)): does not have activity
activity by MBC ([3]; MSSA): does not have activity
activity by MIC ([3]; MSSA; highest taspine concentration tested 10 μg/mL (50% relative to AB-101)): does not have activity

SMILES: Oc1cc(O)c2c(c1)O[C@H](c1ccc(O)c(O)c1)[C@@H](O)C2 [Catechin, catechin]
effect on cell proliferation (cells; compounds obtained through extraction): little effect

SMILES: C[C@@H](O)[C@H]1C(=O)N2C(C(=O)O)=C(SCCN=CN)C[C@H]12 [Imipenem]
MIC (Pseudomonas aeruginosa; ATCC27853, strain ATCC 27853, QC strain): 2 mg/L (≈ 6.68 µM)
MIC (Pseudomonas aeruginosa; strain CDC 0064, MDR): > 64 mg/L
MIC (Pseudomonas aeruginosa; strain CDC 0092, IMP): > 64 mg/L
MIC (Pseudomonas aeruginosa; strain CDC 0103, IMP): > 64 mg/L
MIC (Pseudomonas aeruginosa; strain CDC 0230, VIM): > 64 mg/L
MIC (Pseudomonas aeruginosa; strain CDC 0231, KPC): > 64 mg/L
MIC (Pseudomonas aeruginosa; strain CDC 0239, VIM): > 64 mg/L
MIC (Pseudomonas aeruginosa; strain CDC 0241, IMP): > 64 mg/L
MIC (Pseudomonas aeruginosa; strain CDC 0246, MDR): > 64 mg/L
MIC (Pseudomonas aeruginosa; strain CDC 0250, MDR): > 64 mg/L
MIC (Pseudomonas aeruginosa; strain CDC 0254, VIM): > 64 mg/L
MIC (Pseudomonas aeruginosa; strain CDC 0255, VIM): > 64 mg/L
MIC (Pseudomonas aeruginosa; strain CDC 0353, MDR): 16 mg/L (≈ 53.4 µM)
MIC (Pseudomonas aeruginosa; strain CDC 0356, KPC): > 64 mg/L
MIC (Pseudomonas aeruginosa; strain CDC 0357, MDR): 16 mg/L (≈ 53.4 µM)
MIC (Pseudomonas aeruginosa; strain CDC 0439, IMP): > 64 mg/L
MIC (Pseudomonas aeruginosa; strain CDC 0441, KPC): > 64 mg/L
MIC (Pseudomonas aeruginosa; strain CDC 0508, MDR): 16 mg/L (≈ 53.4 µM)
MIC (Pseudomonas aeruginosa; strain CDC 0509, VIM): > 64 mg/L
MIC (Pseudomonas aeruginosa; strain CDC 0516, KPC): > 64 mg/L
MIC (Pseudomonas aeruginosa; strain CDC 0518, KPC): > 64 mg/L

Further lines, results first:

MIC ([2]; strain 1674607, MupirocinR): > 64 mg/L
MIC ([2]; strain 1674611, MupirocinR): 64 mg/L
MIC ([2]; strain CDC 218, MupirocinR): > 64 mg/L
MIC ([2]; strain CDC 224, MupirocinR): > 64 mg/L
MIC ([2]; strain CDC 227, MupirocinS): 64 mg/L
MIC ([2]; strain CDC 228, MupirocinR): 64 mg/L
MIC ([2]; strain CDC 480, MupirocinS): 32 to 64 mg/L
MIC ([2]; strain CDC 481, MupirocinS): 16 to 32 mg/L
MIC ([2]; strain CDC 482, MupirocinS): 8 to 32 mg/L
MIC ([2]; strain CDC 483, MupirocinS): 64 mg/L
MIC ([3]; Staphylococcus aureus, strain 1674606, MupirocinR, MSSA): 2 to 8 mg/L
MIC ([3]; Staphylococcus aureus, strain 1674606; MupirocinR, MSSA): 2 to 8 mg/L
MIC ([3]; Staphylococcus aureus, strain 1674608, MupirocinR, MSSA): 2 to 4 mg/L
MIC ([3]; Staphylococcus aureus, strain 1674608; MupirocinR, MSSA): 2 to 4 mg/L
MIC ([3]; Staphylococcus aureus, strain ATCC 29213, QC control): 1 to 2 mg/L
MIC ([3]; Staphylococcus aureus, strain ATCC 29213; QC control): 1 to 2 mg/L
MIC [3, 4]: 4 to 8 mg/L
MIC [3, 5]: 4 to 8 mg/L
MIC ([3]; Staphylococcus aureus, strain CDC 462, MupirocinS, MSSA): 8 mg/L
MIC ([3]; Staphylococcus aureus, strain CDC 462; MupirocinS, MSSA): 8 mg/L
MIC ([3]; Staphylococcus aureus, strain CDC 463, MupirocinS, MSSA): 8 to 16 mg/L
MIC ([3]; Staphylococcus aureus, strain CDC 463; MupirocinS, MSSA): 8 to 16 mg/L
MIC ([3]; Staphylococcus aureus, strain CDC 464, MupirocinS, MSSA): 2 mg/L
MIC ([3]; Staphylococcus aureus, strain CDC 464; MupirocinS, MSSA): 2 mg/L
MIC ([3]; Staphylococcus aureus, strain CDC 484, MupirocinS, MSSA): 2 mg/L
MIC ([3]; Staphylococcus aureus, strain CDC 484; MupirocinS, MSSA): 2 mg/L
MIC ([3]; Staphylococcus aureus, strain CDC 485, MupirocinS, MSSA): 2 to 4 mg/L
MIC ([3]; Staphylococcus aureus, strain CDC 485; MupirocinS, MSSA): 2 to 4 mg/L
SMILES: COc1cccc(OC)c1C(=O)N[C@@H]1C(=O)N2[C@@H]1SC(C)(C)[C@@H]2C(=O)O [Methicillin]

MIC ([1]; S. pyogenes strain 1744264): 0.25 mg/L (≈ 0.499 µM)
MIC ([1]; S. pyogenes strain 1744265): 0.5 mg/L (≈ 0.999 µM)
MIC ([1]; S. pyogenes strain 1744271): 0.5 mg/L (≈ 0.999 µM)
MIC ([1]; S. pyogenes strain 1744272): 0.25 mg/L (≈ 0.499 µM)
MIC ([1]; S. pyogenes strain 1744275): ≤ 0.125 mg/L
MIC ([1]; S. pyogenes strain 1744277): ≤ 0.125 mg/L
MIC ([1]; S. pyogenes strain 1744285): ≤ 0.125 mg/L
MIC ([1]; S. pyogenes strain 2065754): ≤ 0.125 mg/L
MIC ([1]; S. pyogenes strain 2065755): ≤ 0.125 mg/L
MIC ([1]; S. pyogenes strain 2065756): ≤ 0.125 mg/L
MIC ([1]; S. pyogenes strain 2065757): ≤ 0.125 mg/L
MIC ([1]; S. pyogenes strain 2065759): ≤ 0.125 mg/L
MIC ([1]; S. pyogenes strain 2065760): ≤ 0.125 mg/L
MIC ([1]; S. pyogenes strain 2065761): ≤ 0.125 mg/L
MIC ([1]; S. pyogenes strain 2065762): ≤ 0.125 mg/L
MIC ([1]; S. pyogenes strain 2065763): ≤ 0.125 mg/L
MIC ([1]; S. pyogenes strain 2065765): ≤ 0.125 mg/L
MIC ([1]; S. pyogenes strain 20658748): ≤ 0.125 mg/L
MIC ([1]; S. pyogenes strain 20658749): ≤ 0.125 mg/L
MIC ([1]; S. pyogenes strain 20658750): ≤ 0.125 mg/L
MIC [3, 4]: 0.25 to 1 mg/L
MIC [3, 5]: 0.25 to 1 mg/L
SMILES: C/C(=C\C(=O)OCCCCCCCCC(=O)O)C[C@@H]1OC[C@H](C[C@@H]2O[C@H]2[C@@H](C)[C@H](C)O)[C@@H](O)[C@H]1O [Mupirocin]
